Assay results reported in patent US20240327364A1, “THERAPEUTIC TARGETING OF GPR68 TO INDUCE FERROPTOSIS” (University Of Maryland, Baltimore, priority 2023, published 2024).

Columns and labels:
[1] = target: T1, EPHA7 (Homo sapiens, UniProt Q15375); test: KinomeScan; assay type: binding; settings: read-out: % Control
T1 construct: purchased DiscoveRx (Fremont, CA)

[2] = target: T2, EGFR(T790M) (Homo sapiens, UniProt P00533, T790M); test: KinomeScan; assay type: binding; settings: read-out: % Control
T2 construct: purchased DiscoveRx (Fremont, CA)

[3] = target: T3, CDK7 (Homo sapiens, UniProt P50613); test: KinomeScan; assay type: binding; settings: read-out: % Control
T3 construct: purchased DiscoveRx (KinomeScan service)

[4] = target: T4, PIK3CA(E545A) (Homo sapiens, UniProt P42336, E545A); test: KinomeScan; assay type: binding; settings: read-out: % Control
T4 construct: purchased DiscoveRx (Fremont, CA)

[5] = target: T5, CDC2L1 (Homo sapiens, UniProt P21127); test: KinomeScan; assay type: binding; settings: read-out: % Control
T5 construct: purchased DiscoveRx (KinomeScan service)

[6] = target: T6, CysLT2 (Homo sapiens, UniProt Q9NS75); test: GPCR Profiler; assay type: cell-based
T6 construct: host or cells: Chem-1 cells with Gα15

[7] = target: CLK3 (Homo sapiens, UniProt P49761); test: KinomeScan; assay type: binding; settings: read-out: % Control
[8] = target: T7, CX3CR1 (Homo sapiens, UniProt P49238); test: GPCR Profiler; assay type: cell-based
T7 construct: host or cells: Chem-1 cells with Gα15

[9] = target: T8, DRAK1 (Homo sapiens, UniProt Q9UEE5); test: KinomeScan; assay type: binding; settings: read-out: % Control
T8 construct: purchased DiscoveRx (Fremont, CA), KinomeScan service

[10] = target: T9, ADRA1B (Homo sapiens, UniProt P35368); test: GPCR Profiler; assay type: cell-based
T9 construct: host or cells: Chem-1 cells with promiscuous Gα15

[11] = target: T10, TAOK2 (Homo sapiens, UniProt Q9UL54); test: KinomeScan; assay type: binding; settings: read-out: % Control
T10 construct: purchased DiscoveRx (Fremont, CA)

[12] = target: T11, IP1 (Homo sapiens, UniProt P43119); test: GPCR Profiler; assay type: cell-based
T11 construct: host or cells: Chem-1 cells with promiscuous Gα15

[13] = target: T12, CAMK2D (Homo sapiens, UniProt Q13557); test: KinomeScan; assay type: binding; settings: read-out: % Control
T12 construct: purchased DiscoveRx (KinomeScan service)

[14] = target: T13, MEK3 (Homo sapiens, UniProt P46734); test: KinomeScan; assay type: binding; settings: read-out: % Control
T13 construct: purchased DiscoveRx (Fremont, CA)

[15] = target: T14, D5 (Homo sapiens, UniProt P21918); test: GPCR Profiler; assay type: cell-based
T14 construct: host or cells: Chem-1 cells expressing Gα15

[16] = target: T15, FGFR2 (Homo sapiens, UniProt P21802); test: KinomeScan; assay type: binding; settings: read-out: % Control
T15 construct: purchased DiscoveRx (Fremont, CA)

[17] = target: T16, ERK4 (Homo sapiens, UniProt P31152); test: KinomeScan; assay type: binding; settings: read-out: % Control
T16 construct: purchased DiscoveRx (Fremont, CA)

[18] = target: T17, OPRM1 (Homo sapiens, UniProt P35372); test: GPCR Profiler; assay type: cell-based
T17 construct: host or cells: Chem-1 cells expressing Gα15

[19] = target: T18, MUSK (Homo sapiens, UniProt O15146); test: KinomeScan; assay type: binding; settings: read-out: % Control
T18 construct: purchased DiscoveRx

[20] = target: T19, PIK3CG (Homo sapiens, UniProt P48736); test: KinomeScan; assay type: binding; settings: read-out: % Control
T19 construct: purchased DiscoveRx (Fremont, CA)

[21] = target: T20, ASK2 (Homo sapiens, UniProt O95382); test: KinomeScan; assay type: binding; settings: read-out: % Control
T20 construct: purchased DiscoveRx (Fremont, CA)

[22] = target: T21, MARK4 (Homo sapiens, UniProt Q96L34); test: KinomeScan; assay type: binding; settings: read-out: % Control
T21 construct: purchased DiscoveRx (Fremont, CA)

[23] = target: T22, EP3 (Homo sapiens, UniProt P43115); test: GPCR Profiler; assay type: cell-based
T22 construct: host or cells: Chem-1 cells expressing Gα15

[24] = target: T23, VEGFR2 (Homo sapiens, UniProt P35968); test: KinomeScan; assay type: binding; settings: read-out: % Control
T23 construct: purchased DiscoveRx

[25] = target: T24, LRRK2(G2019S) (Homo sapiens, UniProt Q5S007, G2019S); test: KinomeScan; assay type: binding; settings: read-out: % Control
T24 construct: purchased DiscoveRx

[26] = target: T25, H2 (Homo sapiens, UniProt P25021); test: GPCR Profiler; assay type: cell-based
T25 construct: host or cells: Chem-1 cells with promiscuous Gα15

[27] = target: T26, PRKG1 (Homo sapiens, UniProt Q13976); test: KinomeScan; assay type: binding; settings: read-out: % Control
T26 construct: purchased DiscoveRx (Fremont, CA)

[28] = target: T27, CB1 (Homo sapiens, UniProt P21554); test: GPCR Profiler; assay type: cell-based
T27 construct: host or cells: Chem-1 cells with promiscuous Gα15

[29] = target: T28, PIK3C2G (Homo sapiens, UniProt O75747); test: KinomeScan; assay type: binding; settings: read-out: % Control
T28 construct: purchased DiscoveRx (Fremont, CA)

[30] = test system: Panc02; test: Liperfluo lipid peroxidation; assay type: cell-based, mouse; settings: OGM2 and ionizing radiation
Description: Where appropriate, ANOVA, or student's T-test were conducted in PRISM. Chi squared T(X) was used for Liperfluo analysis. A value T(X)>4 implies that the two distributions are different with a p<0.01 (99% confidence). For drug interaction and therapeutic interaction, the coefficient of drug interaction (CDI) was calculated as follows: CDI=AB/(A×B). According to the impact of each group, AB is the value of combined treatment and A or B is the value of the single agent group to control group.
Radiation, like OGM2, induces lipid peroxidation in addition to DNA damage. OGM was tested for its ability to sensitize lung and pancreatic cancers to radiation induced lipid peroxidation and ferroptosis. Cells were incubated at 37° C. in 5% CO2 in […] DMEM with DMSO, OGM2, or Erastin for 3 days. Then 2.5 μM Liperfluo in 3 ml fresh media was added and cells were incubated at 37° C. in 5% CO2 for 1 hour. Cells were then trypsinized, pelleted, and resuspended in cell sorting media (1% BSA and 1 mM EDTA in PBS pH 7.4). A BD LSR II was used to record Ten thousand events and the data processed with FlowJo v10.8. […] All treatments were highly significant with Chi-squared >4 indicating a p<0.01.

T7 sequence (P49238 whole entry, species assumed): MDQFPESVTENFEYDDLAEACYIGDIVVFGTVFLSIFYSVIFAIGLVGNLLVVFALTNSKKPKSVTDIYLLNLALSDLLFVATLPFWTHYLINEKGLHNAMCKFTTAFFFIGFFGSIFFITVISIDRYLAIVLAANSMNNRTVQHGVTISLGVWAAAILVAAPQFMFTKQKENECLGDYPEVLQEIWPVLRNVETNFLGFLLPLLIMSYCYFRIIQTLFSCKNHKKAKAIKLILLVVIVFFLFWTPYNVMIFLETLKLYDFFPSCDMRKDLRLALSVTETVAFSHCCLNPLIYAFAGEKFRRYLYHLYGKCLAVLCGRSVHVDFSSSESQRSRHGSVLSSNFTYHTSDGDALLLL
T6 sequence (Q9NS75 whole entry, species assumed): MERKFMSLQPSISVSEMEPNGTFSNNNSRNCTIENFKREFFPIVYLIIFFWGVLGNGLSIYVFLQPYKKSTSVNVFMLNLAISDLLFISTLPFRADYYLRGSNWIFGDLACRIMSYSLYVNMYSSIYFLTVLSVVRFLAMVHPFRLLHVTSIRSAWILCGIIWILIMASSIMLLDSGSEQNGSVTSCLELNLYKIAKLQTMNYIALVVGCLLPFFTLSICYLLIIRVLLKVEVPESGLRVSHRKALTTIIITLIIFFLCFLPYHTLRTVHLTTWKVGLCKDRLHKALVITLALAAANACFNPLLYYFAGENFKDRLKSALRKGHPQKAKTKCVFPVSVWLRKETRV
T11 sequence (P43119 whole entry): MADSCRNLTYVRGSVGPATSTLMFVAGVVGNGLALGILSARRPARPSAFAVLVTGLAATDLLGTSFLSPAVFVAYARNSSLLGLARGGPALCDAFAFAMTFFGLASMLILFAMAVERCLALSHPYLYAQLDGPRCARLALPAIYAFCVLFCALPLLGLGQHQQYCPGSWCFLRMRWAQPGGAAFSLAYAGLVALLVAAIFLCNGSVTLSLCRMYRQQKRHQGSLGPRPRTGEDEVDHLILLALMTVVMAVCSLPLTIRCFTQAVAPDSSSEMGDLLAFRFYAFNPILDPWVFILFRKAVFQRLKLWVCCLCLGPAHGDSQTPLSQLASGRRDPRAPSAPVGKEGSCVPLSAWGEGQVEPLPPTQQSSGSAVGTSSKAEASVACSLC
T17 sequence (P35372 whole entry, species assumed): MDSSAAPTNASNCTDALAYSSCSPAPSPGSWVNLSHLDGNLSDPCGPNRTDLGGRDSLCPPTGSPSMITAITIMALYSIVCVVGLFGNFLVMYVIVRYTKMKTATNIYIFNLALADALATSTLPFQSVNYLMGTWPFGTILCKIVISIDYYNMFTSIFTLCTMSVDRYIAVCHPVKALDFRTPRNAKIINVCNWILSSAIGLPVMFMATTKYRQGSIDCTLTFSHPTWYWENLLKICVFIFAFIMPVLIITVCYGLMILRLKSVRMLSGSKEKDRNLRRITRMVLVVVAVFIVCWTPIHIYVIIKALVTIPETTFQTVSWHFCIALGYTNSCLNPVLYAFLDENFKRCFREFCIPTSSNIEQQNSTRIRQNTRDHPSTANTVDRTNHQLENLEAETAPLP
T27 sequence (P21554 whole entry, species assumed): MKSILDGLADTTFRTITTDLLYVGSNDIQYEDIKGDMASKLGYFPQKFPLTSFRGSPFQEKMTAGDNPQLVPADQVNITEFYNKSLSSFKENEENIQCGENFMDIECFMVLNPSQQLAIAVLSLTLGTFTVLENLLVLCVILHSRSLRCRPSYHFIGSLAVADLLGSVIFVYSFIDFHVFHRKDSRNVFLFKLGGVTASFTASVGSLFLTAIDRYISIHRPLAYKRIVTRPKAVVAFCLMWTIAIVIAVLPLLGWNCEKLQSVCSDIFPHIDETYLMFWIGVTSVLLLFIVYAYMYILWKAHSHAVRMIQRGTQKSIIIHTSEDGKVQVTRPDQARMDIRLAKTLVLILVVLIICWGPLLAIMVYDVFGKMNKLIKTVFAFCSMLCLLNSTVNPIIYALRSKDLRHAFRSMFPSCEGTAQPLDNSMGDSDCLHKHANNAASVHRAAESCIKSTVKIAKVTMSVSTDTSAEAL
T9 sequence (P35368 whole entry, species assumed): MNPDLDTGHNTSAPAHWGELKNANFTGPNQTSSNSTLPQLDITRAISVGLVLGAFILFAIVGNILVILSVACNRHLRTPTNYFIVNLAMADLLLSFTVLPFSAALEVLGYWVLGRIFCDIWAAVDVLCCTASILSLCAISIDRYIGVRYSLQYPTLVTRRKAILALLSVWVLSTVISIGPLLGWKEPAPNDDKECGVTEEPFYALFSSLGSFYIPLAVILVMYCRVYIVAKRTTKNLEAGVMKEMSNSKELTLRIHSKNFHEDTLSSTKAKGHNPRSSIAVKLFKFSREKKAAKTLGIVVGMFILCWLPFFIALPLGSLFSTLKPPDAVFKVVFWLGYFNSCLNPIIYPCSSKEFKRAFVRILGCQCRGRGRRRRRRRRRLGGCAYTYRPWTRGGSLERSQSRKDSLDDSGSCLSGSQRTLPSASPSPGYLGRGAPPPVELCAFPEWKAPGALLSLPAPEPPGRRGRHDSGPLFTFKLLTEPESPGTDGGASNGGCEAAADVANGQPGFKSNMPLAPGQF
T14 sequence (P21918 whole entry): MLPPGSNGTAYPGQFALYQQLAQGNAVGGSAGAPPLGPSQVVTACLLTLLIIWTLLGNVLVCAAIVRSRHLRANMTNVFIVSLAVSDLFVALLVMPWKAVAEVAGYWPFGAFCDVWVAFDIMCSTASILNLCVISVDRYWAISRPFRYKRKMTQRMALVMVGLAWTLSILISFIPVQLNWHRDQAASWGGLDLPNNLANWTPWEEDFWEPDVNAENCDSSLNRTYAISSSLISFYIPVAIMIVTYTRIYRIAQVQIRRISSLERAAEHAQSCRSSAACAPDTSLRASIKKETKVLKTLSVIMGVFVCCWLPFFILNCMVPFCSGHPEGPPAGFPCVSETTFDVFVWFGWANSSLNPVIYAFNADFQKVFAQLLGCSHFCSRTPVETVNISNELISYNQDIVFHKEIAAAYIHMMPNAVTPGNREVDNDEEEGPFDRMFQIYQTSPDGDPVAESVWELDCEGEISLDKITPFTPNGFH
T22 sequence (P43115 whole entry): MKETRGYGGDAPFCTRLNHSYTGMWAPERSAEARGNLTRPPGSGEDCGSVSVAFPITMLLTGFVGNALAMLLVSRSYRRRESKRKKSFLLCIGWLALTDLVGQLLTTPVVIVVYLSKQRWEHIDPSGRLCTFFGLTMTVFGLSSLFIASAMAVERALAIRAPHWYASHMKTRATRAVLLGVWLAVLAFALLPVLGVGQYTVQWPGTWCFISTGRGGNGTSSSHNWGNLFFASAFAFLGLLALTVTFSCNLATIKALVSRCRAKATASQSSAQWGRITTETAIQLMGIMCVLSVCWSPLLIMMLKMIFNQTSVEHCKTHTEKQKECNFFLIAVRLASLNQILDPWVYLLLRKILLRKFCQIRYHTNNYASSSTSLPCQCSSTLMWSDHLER
T25 sequence (P25021 whole entry): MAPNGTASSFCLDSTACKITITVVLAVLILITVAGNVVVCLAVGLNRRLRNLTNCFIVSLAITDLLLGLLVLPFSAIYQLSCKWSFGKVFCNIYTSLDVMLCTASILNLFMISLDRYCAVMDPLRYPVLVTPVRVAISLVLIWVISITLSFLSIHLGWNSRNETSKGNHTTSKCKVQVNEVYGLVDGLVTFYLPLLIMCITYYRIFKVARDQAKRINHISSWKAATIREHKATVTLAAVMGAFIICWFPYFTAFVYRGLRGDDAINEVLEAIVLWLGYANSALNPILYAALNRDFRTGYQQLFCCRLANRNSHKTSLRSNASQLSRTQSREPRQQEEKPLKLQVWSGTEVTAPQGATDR
T13 sequence (P46734 whole entry): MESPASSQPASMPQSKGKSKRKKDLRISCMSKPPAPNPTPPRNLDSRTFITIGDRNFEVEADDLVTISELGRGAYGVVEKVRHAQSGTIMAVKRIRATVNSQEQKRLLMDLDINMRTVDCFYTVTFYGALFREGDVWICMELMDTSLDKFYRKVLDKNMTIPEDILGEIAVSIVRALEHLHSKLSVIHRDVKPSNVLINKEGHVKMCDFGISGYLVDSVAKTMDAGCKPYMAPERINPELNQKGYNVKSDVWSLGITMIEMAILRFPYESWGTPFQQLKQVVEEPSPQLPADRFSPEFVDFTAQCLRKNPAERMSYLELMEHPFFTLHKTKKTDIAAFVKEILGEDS
T3 sequence (P50613 whole entry): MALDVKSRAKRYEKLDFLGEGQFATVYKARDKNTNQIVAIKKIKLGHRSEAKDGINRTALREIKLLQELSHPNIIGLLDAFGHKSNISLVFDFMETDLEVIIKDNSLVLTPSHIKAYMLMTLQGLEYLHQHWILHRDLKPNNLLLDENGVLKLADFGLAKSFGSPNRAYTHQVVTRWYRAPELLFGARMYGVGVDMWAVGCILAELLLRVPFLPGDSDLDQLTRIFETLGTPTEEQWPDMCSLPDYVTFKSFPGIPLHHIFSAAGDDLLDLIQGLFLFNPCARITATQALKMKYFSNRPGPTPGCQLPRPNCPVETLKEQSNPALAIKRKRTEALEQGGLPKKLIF
T8 sequence (Q9UEE5 whole entry): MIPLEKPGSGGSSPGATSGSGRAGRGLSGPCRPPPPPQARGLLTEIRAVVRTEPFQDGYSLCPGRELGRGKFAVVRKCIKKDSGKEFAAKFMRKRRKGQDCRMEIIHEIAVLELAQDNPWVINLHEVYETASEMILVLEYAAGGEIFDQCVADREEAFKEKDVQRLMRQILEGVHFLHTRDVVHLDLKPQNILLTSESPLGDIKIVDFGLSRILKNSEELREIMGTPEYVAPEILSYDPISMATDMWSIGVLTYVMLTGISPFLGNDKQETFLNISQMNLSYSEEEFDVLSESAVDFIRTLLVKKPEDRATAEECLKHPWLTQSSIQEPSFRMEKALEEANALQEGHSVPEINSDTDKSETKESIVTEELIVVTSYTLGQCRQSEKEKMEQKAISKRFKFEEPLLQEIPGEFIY

**Q.** With `CCc1ccc2c(c1)C1(NN=C(c3cccc4ccccc34)S1)C(=O)N2` (stereo not drawn) [OGM1, 5-ethyl-5′-naphthalen-1-ylspiro[1H-indole-3,2′-3H-1,3,4-thiadiazole]-2-one] as the compound, how does the remaining binding at 10 µM [1] read?
**A.** Its remaining binding at 10 µM is 100%.

**Q.** And the remaining binding at 10 µM [2]?
**A.** Its remaining binding at 10 µM is 74%.

**Q.** And the remaining binding at 10 µM [3]?
**A.** Its remaining binding at 10 µM is 64%.

**Q.** And the remaining binding at 10 µM [4]?
**A.** Its remaining binding at 10 µM is 81%.

**Q.** What about the remaining binding at 10 µM [5] of the same compound?
**A.** Its remaining binding at 10 µM is 92%.

**Q.** What about the Antagonism ([6]; 10 uM) of the same compound?
**A.** Its Antagonism is −7.1.

**Q.** What about the Agonism ([6]; 12.5 uM) of the same compound?
**A.** Its Agonism is −0.3.

**Q.** What about the remaining binding at 10 µM [7] of the same compound?
**A.** The remaining binding at 10 µM was 100%.

**Q.** And the Antagonism ([8]; 10 uM)?
**A.** The Antagonism was −12.1.

**Q.** And the Agonism ([8]; 12.5 uM)?
**A.** The Agonism was 0.3.

**Q.** What about the remaining binding at 10 µM [9] of the same compound?
**A.** Its remaining binding at 10 µM is 100%.

**Q.** What about the Antagonism ([10]; 10 uM) of the same compound?
**A.** The Antagonism was 1.

**Q.** And the Agonism ([10]; 12.5 uM)?
**A.** Its Agonism is 0.1.

**Q.** And the remaining binding at 10 µM [11]?
**A.** Its remaining binding at 10 µM is 81%.

**Q.** What about the Antagonism ([12]; 10 uM) of the same compound?
**A.** The Antagonism was −2.

**Q.** What about the Agonism ([12]; 12.5 uM) of the same compound?
**A.** Its Agonism is −0.5.

**Q.** And the remaining binding at 10 µM [13]?
**A.** The remaining binding at 10 µM was 91%.

**Q.** And the remaining binding at 10 µM [14]?
**A.** Its remaining binding at 10 µM is 100%.

**Q.** What about the Antagonism ([15]; 10 uM) of the same compound?
**A.** The Antagonism was −17.8.

**Q.** And the Agonism ([15]; 12.5 uM)?
**A.** The Agonism was −1.8.

**Q.** What about the remaining binding at 10 µM [16] of the same compound?
**A.** Its remaining binding at 10 µM is 100%.

**Q.** What about the remaining binding at 10 µM [17] of the same compound?
**A.** The remaining binding at 10 µM was 93%.

**Q.** And the Antagonism ([18]; 10 uM)?
**A.** The Antagonism was −0.7.

**Q.** And the Agonism ([18]; 12.5 uM)?
**A.** The Agonism was −0.7.

**Q.** What about the remaining binding at 10 µM [19] of the same compound?
**A.** Its remaining binding at 10 µM is 90%.

**Q.** And the remaining binding at 10 µM [20]?
**A.** The remaining binding at 10 µM was 100%.

**Q.** And the remaining binding at 10 µM [21]?
**A.** The remaining binding at 10 µM was 100%.

**Q.** And the remaining binding at 10 µM [22]?
**A.** Its remaining binding at 10 µM is 95%.

**Q.** What about the Antagonism ([23]; 10 uM) of the same compound?
**A.** The Antagonism was 6.3.

**Q.** And the Agonism ([23]; 12.5 uM)?
**A.** The Agonism was 0.4.

**Q.** And the remaining binding at 10 µM [24]?
**A.** The remaining binding at 10 µM was 100%.

**Q.** And the remaining binding at 10 µM [25]?
**A.** The remaining binding at 10 µM was 100%.

**Q.** And the Antagonism ([26]; 10 uM)?
**A.** Its Antagonism is 1.3.

**Q.** What about the Agonism ([26]; 12.5 uM) of the same compound?
**A.** Its Agonism is 0.1.

**Q.** And the remaining binding at 10 µM [27]?
**A.** Its remaining binding at 10 µM is 100%.

**Q.** And the Antagonism ([28]; 10 uM)?
**A.** The Antagonism was −6.8.

**Q.** What about the Agonism ([28]; 12.5 uM) of the same compound?
**A.** Its Agonism is −0.1.

**Q.** What about the remaining binding at 10 µM [29] of the same compound?
**A.** The remaining binding at 10 µM was 50%.

**Q.** How did the “CDI, lipid peroxidation” value [30] turn out when `CCc1ccc2c(c1)C1(NN=C(c3ccccc3)S1)C(=O)N2` (stereo not drawn) [OGM2] was run?
**A.** Its value is under 0.232.
